Assays:
[1] = system: TRZAWR (Wheat, Winter, cv Riband); assay: Postemergence herbicidal evaluation; format: in vivo, Triticum aestivum; details: postemergence
How it was run: (§1)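 Young plants, roughly two weeks from seeding, receive the active ingredient as a sprayed dispersion (acetone/water 50/50, 0.5% TWEEN 20) at 40 psi. Doses span about 0.0156 to 0.500 kg/ha. A visual score from 0 to 9 compares treated with control plants four to five weeks on.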

[2] = system: IPOHE (Morningglory, Ivyleaf); assay: Preemergence herbicidal evaluation; format: in vivo, Ipomoea hederacea; details: rated 4-5 weeks after treatment
How it was run: (§2)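 Seeds were mixed with potting soil and planted on about one inch of soil, then sprayed with test compound in aqueous acetone at about 0.0156 to 0.500 kg per hectare. Plants grew under standard greenhouse care and were visually rated 0-9 against untreated controls 4-5 weeks post-treatment.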

MOOVA (Monochoria) = assay: Preemergence weed control under flooded paddy conditions; format: in vivo, Monochoria vaginalis; details: rated 3-4 weeks after treatment
How it was run: (§3)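 Seeds or propagules sown in silt loam kept flooded 1.5-3 cm; compounds in 50/50 acetone/water pipetted into flood water at about 0.0313 to 0.500 kg/ha. Greenhouse; visual 0-9 rating versus untreated control 3-4 weeks after treatment.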

ORYSAT (Rice, Tebonnet) = assay: Preemergence herbicidal evaluation; format: in vivo, Oryza sativa, (L.) Tebonnet; details: rated 4-5 weeks after treatment
How it was run: as §2

[3] = system: TRZAWR (Wheat, Winter, cv Riband); assay: Preemergence herbicidal evaluation; format: in vivo, Triticum aestivum; details: rated 4-5 weeks after treatment
How it was run: as §2

[4] = system: CHEAL (Lambsquarters, Common); assay: Preemergence herbicidal evaluation; format: in vivo, Chenopodium album; details: rated 4-5 weeks after treatment
How it was run: as §2

[5] = system: ECHORC (Watergrass (Calif.)); assay: Preemergence weed control under flooded paddy conditions; format: in vivo, Echinochloa oryzoides; details: rated 3-4 weeks after treatment
How it was run: as §3

ECHCG (Barnyardgrass) = assay: Preemergence herbicidal evaluation; format: in vivo, Echinochloa crus-galli; details: rated 4-5 weeks after treatment
How it was run: as §2

[6] = system: IPOHE (Morningglory, Ivyleaf); assay: Postemergence herbicidal evaluation; format: in vivo, Ipomoea hederacea; details: postemergence
How it was run: as §1

SETVI (Foxtail, Green) = assay: Preemergence herbicidal evaluation; format: in vivo, Setaria viridis; details: rated 4-5 weeks after treatment
How it was run: as §2

ABUTH (Velvetleaf) = assay: Postemergence herbicidal evaluation; format: in vivo, Abutilon theophrasti; details: postemergence
How it was run: as §1

[7] = rate 0.1250 kg/ha, rating scale 0-9
[8] = rate 0.2500 kg/ha, rating scale 0-9
[9] = rate 0.0625 kg/ha, rating scale 0-9

Structure (SMILES): COC(=O)CSCCN1C(=O)CSC1=Nc1cc(-n2c(=O)cc(C(F)(F)F)n(C)c2=O)c(F)cc1Cl [Compound 158, Methyl {{2-{2-{{2-chloro-5-[3,6-dihydro-3-methyl-2,6-dioxo-4-(trifluoromethyl)-1(2H)-pyrimidinyl]-4-fluorophenyl}imino}-4-oxo-3-thiazolidinyl}ethyl}-thio}acetate]
- herbicidal rating TRZAWR ([1]; rate 0.0156 kg/ha): 3.5
- herbicidal rating TRZAWR ([1]; rate 0.0313 kg/ha): 4.0
- herbicidal rating TRZAWR ([1]; rate 0.0625 kg/ha): 3.5
- Preemergence herbicidal rating IPOHE ([2]; 0.0156 kg/ha): 1.0
- Preemergence herbicidal rating IPOHE ([2]; 0.0313 kg/ha): 4.0
- Preemergence herbicidal rating IPOHE ([2]; 0.0625 kg/ha): 7.0
- Preemergence herbicidal rating IPOHE [2, 7]: 9.0
- Preemergence herbicidal rating IPOHE [2, 8]: 9.0
- herbicidal effect rating, MOOVA (MOOVA (Monochoria); 0.0313 kg/ha): 9.0
- herbicidal effect rating, MOOVA (MOOVA (Monochoria); 0.0625 kg/ha): 9.0
- herbicidal effect rating, MOOVA (MOOVA (Monochoria); 0.1250 kg/ha): 9.0
- herbicidal effect rating, MOOVA (MOOVA (Monochoria); 0.2500 kg/ha): 9.0
- Preemergence herbicidal rating ORYSAT (ORYSAT (Rice, Tebonnet); 0.0156 kg/ha): 3.0
- Preemergence herbicidal rating ORYSAT (ORYSAT (Rice, Tebonnet); 0.0313 kg/ha): 4.0
- Preemergence herbicidal rating ORYSAT (ORYSAT (Rice, Tebonnet); 0.0625 kg/ha): 7.0
- Preemergence herbicidal rating ORYSAT (ORYSAT (Rice, Tebonnet); [7]): 7.0
- Preemergence herbicidal rating ORYSAT (ORYSAT (Rice, Tebonnet); [8]): 8.0
- Preemergence herbicidal rating TRZAWR ([3]; 0.0156 kg/ha): 1.0
- Preemergence herbicidal rating TRZAWR ([3]; 0.0313 kg/ha): 4.0
- Preemergence herbicidal rating TRZAWR ([3]; 0.0625 kg/ha): 5.0
- Preemergence herbicidal rating TRZAWR [3, 7]: 7.0
- Preemergence herbicidal rating TRZAWR [3, 8]: 7.0
- Preemergence herbicidal rating CHEAL ([4]; 0.0156 kg/ha): 9.0
- Preemergence herbicidal rating CHEAL ([4]; 0.0313 kg/ha): 9.0
- Preemergence herbicidal rating CHEAL ([4]; 0.0625 kg/ha): 9.0
- Preemergence herbicidal rating CHEAL [4, 7]: 9.0
- Preemergence herbicidal rating CHEAL [4, 8]: 9.0
- herbicidal effect rating, ECHORC ([5]; 0.0313 kg/ha): 9.0
- herbicidal effect rating, ECHORC ([5]; 0.0625 kg/ha): 9.0
- herbicidal effect rating, ECHORC ([5]; 0.1250 kg/ha): 9.0
- herbicidal effect rating, ECHORC ([5]; 0.2500 kg/ha): 9.0
- Preemergence herbicidal rating ECHCG (ECHCG (Barnyardgrass); 0.0156 kg/ha): 2.0
- Preemergence herbicidal rating ECHCG (ECHCG (Barnyardgrass); 0.0313 kg/ha): 7.0
- Preemergence herbicidal rating ECHCG (ECHCG (Barnyardgrass); 0.0625 kg/ha): 9.0
- Preemergence herbicidal rating ECHCG (ECHCG (Barnyardgrass); [7]): 9.0
- Preemergence herbicidal rating ECHCG (ECHCG (Barnyardgrass); [8]): 9.0
- herbicidal rating IPOHE ([6]; rate 0.0156 kg/ha): 9.0
- herbicidal rating IPOHE ([6]; rate 0.0313 kg/ha): 9.0
- herbicidal rating IPOHE ([6]; rate 0.0625 kg/ha): 9.0
- Preemergence herbicidal rating SETVI (SETVI (Foxtail, Green); 0.0156 kg/ha): 7.0
- Preemergence herbicidal rating SETVI (SETVI (Foxtail, Green); 0.0313 kg/ha): 9.0
- Preemergence herbicidal rating SETVI (SETVI (Foxtail, Green); 0.0625 kg/ha): 9.0
- Preemergence herbicidal rating SETVI (SETVI (Foxtail, Green); [7]): 9.0
- Preemergence herbicidal rating SETVI (SETVI (Foxtail, Green); [8]): 9.0
- herbicidal rating ABUTH (ABUTH (Velvetleaf); rate 0.0156 kg/ha): 9.0
- herbicidal rating ABUTH (ABUTH (Velvetleaf); rate 0.0313 kg/ha): 9.0
- herbicidal rating ABUTH (ABUTH (Velvetleaf); rate 0.0625 kg/ha): 9.0

Structure (SMILES): COCCN1C(=O)CSC1=Nc1cc(-n2c(=O)cc(C(F)(F)F)n(C)c2=O)c(F)cc1Cl [Compound 155, 3-{4-Chloro-2-fluoro-5-{[3-(2-methoxyethyl)-4-oxo-2-thiazolidinylidene]amino}phenyl}-1-methyl-6-(trifluoromethyl)-2,4(1H,3H)-pyrimidinedione]
- herbicidal rating TRZAWR ([1]; rate 0.0156 kg/ha): 1.0
- herbicidal rating TRZAWR ([1]; rate 0.0313 kg/ha): 2.0
- herbicidal rating TRZAWR ([1]; rate 0.0625 kg/ha): 3.0
- Preemergence herbicidal rating IPOHE [2, 9]: 0.0
- Preemergence herbicidal rating IPOHE [2, 7]: 0.0
- Preemergence herbicidal rating IPOHE [2, 8]: 2.0
- herbicidal effect rating, MOOVA (MOOVA (Monochoria); 0.0313 kg/ha): 0.0
- herbicidal effect rating, MOOVA (MOOVA (Monochoria); 0.0625 kg/ha): 0.0
- herbicidal effect rating, MOOVA (MOOVA (Monochoria); 0.1250 kg/ha): 0.0
- herbicidal effect rating, MOOVA (MOOVA (Monochoria); 0.2500 kg/ha): 0.0
- Preemergence herbicidal rating ORYSAT (ORYSAT (Rice, Tebonnet); [9]): 0.0
- Preemergence herbicidal rating ORYSAT (ORYSAT (Rice, Tebonnet); [7]): 0.0
- Preemergence herbicidal rating ORYSAT (ORYSAT (Rice, Tebonnet); [8]): 2.0
- Preemergence herbicidal rating TRZAWR [3, 9]: 0.0
- Preemergence herbicidal rating TRZAWR [3, 7]: 0.0
- Preemergence herbicidal rating TRZAWR [3, 8]: 0.0
- Preemergence herbicidal rating CHEAL [4, 9]: 0.0
- Preemergence herbicidal rating CHEAL [4, 7]: 9.0
- Preemergence herbicidal rating CHEAL [4, 8]: 9.0
- herbicidal effect rating, ECHORC ([5]; 0.0313 kg/ha): 4.0
- herbicidal effect rating, ECHORC ([5]; 0.0625 kg/ha): 4.0
- herbicidal effect rating, ECHORC ([5]; 0.1250 kg/ha): 4.0
- herbicidal effect rating, ECHORC ([5]; 0.2500 kg/ha): 4.0
- Preemergence herbicidal rating ECHCG (ECHCG (Barnyardgrass); [9]): 0.0
- Preemergence herbicidal rating ECHCG (ECHCG (Barnyardgrass); [7]): 0.0
- Preemergence herbicidal rating ECHCG (ECHCG (Barnyardgrass); [8]): 0.0
- herbicidal rating IPOHE ([6]; rate 0.0156 kg/ha): 2.0
- herbicidal rating IPOHE ([6]; rate 0.0313 kg/ha): 4.0
- herbicidal rating IPOHE ([6]; rate 0.0625 kg/ha): 9.0
- Preemergence herbicidal rating SETVI (SETVI (Foxtail, Green); [9]): 0.0
- Preemergence herbicidal rating SETVI (SETVI (Foxtail, Green); [7]): 0.0
- Preemergence herbicidal rating SETVI (SETVI (Foxtail, Green); [8]): 0.0
- herbicidal rating ABUTH (ABUTH (Velvetleaf); rate 0.0156 kg/ha): 3.0
- herbicidal rating ABUTH (ABUTH (Velvetleaf); rate 0.0313 kg/ha): 9.0
- herbicidal rating ABUTH (ABUTH (Velvetleaf); rate 0.0625 kg/ha): 9.0

From US20020137929A1, “1 - (3-heterocyclylphenyl) isothiourea, -isourea, -guanidine and -amidine herbicidal agents” (Intellectual Property Department, BASF Aktiengesellschaft, priority 1998, published 2002)
